In patent US7897588B2, “Agents and methods for enhancing bone formation” (The Regents of the University of California, priority 2003, dated 2011):

Experiments:
[1] = system: M2-10B4 mouse marrow stromal cell line; test: Alkaline phosphatase (ALP) activity assay in M2 cells; assay type: cell-based; settings: for inhibition of oxysterol-induced alkaline phosphatase activity: 22R+20S, SC-560 10 μM, ACA 25 μM, AACOCF3 20 μM, PD98059 20 μM
Experimental: (§1) Cells: M2-10B4 mouse marrow stromal cell line obtained from American Type Culture Collection (ATCC, Rockville, Md., U.S.A.) was derived from bone marrow stromal cells of a (C57BL/6J×C3H/HeJ) F1 mouse, and support human and murine myelopoiesis in long-term cultures (as per ATCC) and have the ability to differentiate into osteoblastic and adipocytic cells. Unless specified, these cells were cultured in RPMI 1640 containing 10% heat-inactivated FBS, and supplemented with 1 mM sodium pyruvate, 100 U/ml penicillin, and 100 […] (all from Irvine Scientific).
Alkaline phosphatase activity assay: Colorimetric alkaline phosphatase (ALP) activity assay on whole cell extracts was performed as previously described.
Test 1: M2 cells at confluence were treated with control vehicle (C), or 10 μM oxysterols, in an osteogenic medium consisting of RPMI 1640 to which 10% fetal bovine serum (FBS), 50 μg/ml ascorbate and 3 mM beta-glycerophosphate (βGP) were added. After 3 days of incubation, alkaline phosphatase (ALP) activity was determined in cell homogenates by a colorimetric assay. […] FIG. 3A is a bar graph depicting the effect of various oxysterols on alkaline phosphatase activity in M2 cells.
M2 cells at confluence were treated in osteogenic medium with control vehicle (C) or a combination of 22R and 20S oxysterols, at the indicated concentrations. ALP activity was measured after 3 days as described above. […] FIG. 3B is a bar graph depicting the effect of a combination of oxysterols at various doses on alkaline phosphatase activity in M2 cells.
Test 2: M2 cells were grown in RPMI medium containing 10% fetal bovine serum (FBS). At confluence, the cells were treated in RPMI containing 5% FBS plus ascorbate at 50 μg/ml and β-glycerophosphate at 3 mM to induce osteoblastic differentiation. Adipogenic differentiation was induced by treating the cells in growth medium plus 10 ˜M troglitazone. A vehicle (C) or oxysterol treatment was applied to cells in a variety of doses (in μM): 20S-Hydroxycholesterol, 25-Hydroxycholesterol, 22R-Hydroxycholesterol; 22S-Hydroxycholesterol; 7-ketocholesterol. Cells were always treated at 90% confluence. After 4 days, alkaline phosphatase activity was determined in whole cell lysates and normalized to protein. Alternatively, MSC cultures were prepared and treated with oxysterols as described above. Cells were treated at 90% confluence with the combination of 22R-Hydroxycholesterol and 20S-Hydroxycholesterol, each at 5 uM, for 4 to 96 hours. The oxysterols where removed and fresh media without oxysterols was added for a total duration of 96 hours. Alkaline phosphatase activity was measured in whole cell extracts and normalized to protein.
M2 cells were treated at 90% confluence with vehicle (C), or oxysterols 20S-Hydroxycholesterol or 22S-Hydroxycholesterol at (0.5 μM) or (1 μM), in the absence or presence of cytochrome P450 inhibitor (SKF525A 10 μM (+)). MSC cultures were also treated at 90% confluence with vehicle (C), or 20S-Hydroxycholesterol (2 μM), in the absence or presence of cytochrome P450 […] (Benzylimidazole 50 μM) or SKF525A (10 μM). After 4 days, alkaline phosphatase activity was measured in whole cell extracts and normalized to protein.
Next, a combination of 22R and 20S oxysterols (RS, 2.5 μM each) were added in the presence or absence of SC as indicated. After 3 days, ALP activity was measured as described earlier. […] (B) M2 cells were treated as described in (A) and after 10 days matrix mineralization in cultures was quantified by a ^45Ca incorporation assay as described earlier.

[2] = system: M2 cells; test: Adipogenesis of troglitazone-treated M2 cells (oil Red O staining, adipocyte count); assay type: cell-based, mouse; settings: M2 cells treated with Tro 10 μM, oxysterols 10 μM, 10 days
Experimental: (§2) Von Kossa and oil red O staining—Matrix mineralization in cell monolayers was detected by silver nitrate staining as previously described. Oil red O staining for detection of adipocytes was performed as previously described.
Test 1: M2 cells at 90% confluence were treated with vehicle (C), PPAR-γ activator, troglitazone 10 uM (Tro), alone or in combination with 10 μM oxysterols 20S-, 22R-, or 25S-hydroxycholesterol. After 8 days, adipocytes were identified by oil Red 0 staining and quantified by counting under a phase contrast microscope. FIG. 6A is a bar graph depicting the effect of oxysterols on reducing adipogenesis of MSC.
Test 2: (A) M2 cells at confluence were treated in RPMI containing 10% FBS with control vehicle or 10 μM troglitazone (Tro) in the absence or presence of 10 μM 20S or 22S oxysterols. After 10 days, adipocytes were visualized by oil Red O staining and quantified by light microscopy, shown in (B). Data from a representative of four experiments are shown, reported as the mean SD of quadruplicate determinations (p<0.001 for Tro vs. Tro+20S and Tro+22S). (C) M2 cells were treated at confluence with 10 μM Tro, alone or in combination with 10 μM 20S oxysterol. After 10 days, total RNA was isolated and analyzed for lipoprotein lipase (LPL), adipocyte P2 gene (aP2) or 18S rRNA expression by Northern blotting as described (Ref). Data from densitometric analysis of the Northern blot is shown in (D) as the average of duplicate samples, normalized to 18S rRNA.

[3] = system: M2-10B4 mouse marrow stromal cell line; test: Matrix mineralization in M2 cells (von Kossa staining, 45Ca incorporation assay); assay type: cell-based; settings: 22R+20S, 10 days, SC-560 10 μM, ACA 25 μM, AACOCF3 20 μM, PD98059 20 μM
Experimental: as §1, §2
^45Ca incorporation assay—Matrix mineralization in cell monolayers was quantified using the ^45Ca incorporation assay as previously described.
M2 cells at confluence were treated in osteogenic medium with control vehicle or 5 μM oxysterols, alone or in combination as indicated. After 14 days, mineralization was identified by a von Kossa staining, which appears black. FIG. 3C is a depiction of von Kossa staining of M2 cells exposed to various conditions.
M2 cells were treated with control vehicle (C) or a combination of 22R and 20S oxysterols at increasing concentrations. After 14 days, matrix mineralization in cultures was quantified using a ^45Ca incorporation assay. […] FIG. 3D is a bar graph depicting the effect of a combination of oxysterols at various doses on calcium incorporation in M2 cells.
(§3) Next, a combination of 22R and 20S oxysterols (RS, 2.5 μM each) were added in the presence or absence of SC as indicated. After 3 days, ALP activity was measured as described earlier. […] (B) M2 cells were treated as described in (A) and after 10 days matrix mineralization in cultures was quantified by a ^45Ca incorporation assay as described earlier. Results from a representative of three experiments are shown, reported as the mean±SD of quadruplicate determinations, normalized to protein concentration. (C) M2 cells were pretreated with 20 μM SC for 4 hours, followed by the addition of RS in the presence or absence of SC as described above. After 8 days, total RNA was isolated and analyzed for osteocalcin (Osc) and 18S rRNA expression by Northern blotting as previously described. Data from densitometric analysis of the Northern blot is shown in (D) as the average of duplicate samples, normalized to 18S rRNA. (E) M2 cells at confluence were pretreated for 2 hours with control vehicle (C), or PLA2 inhibitors ACA (25 μM) and AACOCF3 (AAC, 20 μM), in osteogenic medium. Next, a combination of 22R and 20S oxysterols (RS, 2.5 μM) was added in the presence or absence of the inhibitors as indicated. After 3 days, ALP activity was measured as previously described. Data from a representative of three experiments are shown, reported as the mean±SD of quadruplicate determinations, normalized to protein concentration (p<0.01 for RS vs. RS+ACA and RS+AAC). (F) M2 cells were treated as described in (E). After 10 days, matrix minerliazation in cultures was quantified using a ^45Ca incorporation assay as previously described. Results from a representative of three experiments are shown, reported as the mean of quadruplicate determinations±SD, normalized to protein concentration (p<0.01 for RS vs. RS+ACA and RS+AAC).
(A) M2 cells at confluence were pretreated for four hours with RPMI containing 1% FBS, followed by treatment with control vehicle or 5 μM 20S oxysterol for 1, 4, or 8 hours. Next total cell extracts were prepared and analyzed for levels of native or phosphorylated ERK (pERK) using specific antibodies as previously described.

[4] = system: marrow stromal cells; test: Osteogenic activity of marrow stromal cells (alkaline phosphatase, mineral formation), overall; assay type: cell-based, mouse; settings: M2 cells; SC-560 at 1-20 μM; NS-398 at 20 μM
Experimental: as §3, with “Data from a representative of three experiments are shown, reported as the mean±SD of quadruplicate determinations, normalized to protein concentration (p<0.01 for RS vs. RS+ACA and RS+AAC). (F) M2 cells were treated as described in (E).” left out, “Results from a representative of three experiments are shown, reported as the mean of quadruplicate determinations±SD, normalized to protein concentration (p<0.01 for RS vs. RS+ACA and RS+AAC).” left out

[5] = system: M2 cells; test: Toxicity of COX inhibitors in M2 cell cultures; assay type: cell-based, mouse

Q: Which results are given for `CC(C)CCC[C@@H](C)[C@H]1CC[C@H]2[C@@H]3C(=O)C=C4C[C@@H](O)CC[C@]4(C)[C@H]3CC[C@]12C` [7K, 7-ketocholesterol, reference compound]?
A: induction of alkaline phosphatase activity ([1]; osteogenic medium, 10 μM oxysterols, 3 days): did not induce; inhibition of adipogenesis [2]: unable to inhibit

Q: `CCCC(C(=O)OCCN(CC)CC)(c1ccccc1)c1ccccc1.Cl` [SKF525A] was tested. Which “effect on the osteogenic effects of the oxysterols (alkaline phosphatase activity)” value ([1]; 20S or 22S 0.5 or 1 μM, SKF525A 10 μM, 4 days) did it give?
A: Its value is “potentiated”.

Q: How did the “reversal of the effect of the PLA2 inhibitors on oxysterol-induced alkaline phosphatase activity” value ([1]; 25 μM arachidonic acid (data not shown)) turn out when `CCCCC/C=C\C/C=C\C/C=C\C/C=C\CCCC(=O)O` [arachidonic acid] was run?
A: The value was “reversed”.

Q: How did the “inhibition of oxysterol-induced alkaline phosphatase activity” value [1] turn out when `CCCCC/C=C\C/C=C\C/C=C\C/C=C\CCCC(=O)C(F)(F)F` [AACOCF3] was run?
A: Its value is “inhibited”.

Q: What about the “inhibition of oxysterol-induced mineralization” value [3] of the same compound?
A: The value was “inhibited”.

Q: Which “inhibition of oxysterol-induced alkaline phosphatase activity” value [1] does the source give for `CCCCCc1ccc(/C=C/C(=O)Nc2ccccc2C(=O)O)cc1` [ACA] here?
A: The value was “inhibited”.

Q: What about the “inhibition of oxysterol-induced mineralization” value [3] of the same compound?
A: Its value is “inhibited”.

Q: `COc1cccc(-c2cc(=O)c3ccccc3o2)c1N` [PD98059] was tested. Which “inhibition of oxysterol-induced mineralization” value [3] did it give?
A: Its value is “inhibited”.

Q: `CCCCC[C@H](O)/C=C/[C@H]1[C@H](O)CC(=O)[C@@H]1C/C=C\CCCC(=O)O` [PGE2, prostaglandin E2] was tested. Which “reversal of the effect of the COX-1 inhibitor on oxysterol-induced alkaline phosphatase activity” value ([1]; 1 μM PGE2 (data not shown)) did it give?
A: Its value is “reversed”.

Q: For `CS(=O)(=O)Nc1ccc([N+](=O)[O-])cc1OC1CCCCC1` [NS-398], which “inhibition of the osteogenic effects of oxysterol combinations” value [4] is on record?
A: The value was “negligible inhibitory effects”.

Q: And the highest non-toxic dose [5]?
A: The highest non-toxic dose was 20 µM.
